We go through five compounds from the supplement of paper PMC10307832.

The first assay deals with LXF-289. Briefly: relative viability (nuclei count vs DMSO), 5 days (fraction); higher = more cells survive. As to conditions: first compound 0.08 µM. In short, it runs like this: (§1)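 Each reported value is a median over duplicate plates. It expresses relative viability: treated-well nuclei count divided by vehicle-well nuclei count. Lung cancer cell lines in 1536-well plates were dosed by pin tool a day after seeding, alone with one drug or with a fixed anchor-drug dose plus five library-drug doses (not always all listed) in √10 steps, and nuclei were counted after 5 days.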
With `Oc1nc(-c2ccc(C(F)(F)F)cc2)nc2c1CSCC2` [XAV939] + CC(=O)c1c(C)c2cnc(Nc3ccc(N4CCNCC4)cn3)nc2n(C2CCCC2)c1=O [Palbociclib] (partner 0.5 µM), the relative viability was 0.565.

`C=C1C(=O)O[C@@H](CCCCCCCC)[C@@H]1C(=O)O` [C-75] + CC(=O)c1c(C)c2cnc(Nc3ccc(N4CCNCC4)cn3)nc2n(C2CCCC2)c1=O [Palbociclib] (partner 0.5 µM): the relative viability was determined as 0.567.

`C=C1C(=O)O[C@@H](CCCCCCCC)[C@@H]1C(=O)O` [C-75] + Nc1ncn([C@H]2C[C@H](O)[C@@H](CO)O2)c(=O)n1 [Decitabine] (partner 2 µM) returned a relative viability of 0.361.

The same assay, now with this note: first compound 0.253 µM.
On to `Oc1nc(-c2ccc(C(F)(F)F)cc2)nc2c1CSCC2` [XAV939] + O=C(CCCCCCC(=O)Nc1ccccc1)NO [Vorinostat] (partner 1 µM), for which the relative viability worked out at 0.68.

In turn, `Oc1nc(-c2ccc(C(F)(F)F)cc2)nc2c1CSCC2` [XAV939] + O=C(c1cc(Cc2n[nH]c(=O)c3ccccc23)ccc1F)N1CCN(C(=O)C2CC2)CC1 [Olaparib] (partner 8 µM) showed a relative viability of 1.05.

Compound `Oc1nc(-c2ccc(C(F)(F)F)cc2)nc2c1CSCC2` [XAV939] + CC(=O)c1c(C)c2cnc(Nc3ccc(N4CCNCC4)cn3)nc2n(C2CCCC2)c1=O [Palbociclib] (partner 0.5 µM) showed a relative viability of 0.571.

For `C=C1C(=O)O[C@@H](CCCCCCCC)[C@@H]1C(=O)O` [C-75] + CC(=O)c1c(C)c2cnc(Nc3ccc(N4CCNCC4)cn3)nc2n(C2CCCC2)c1=O [Palbociclib] (partner 0.5 µM), the relative viability was 0.553.

With `C=C1C(=O)O[C@@H](CCCCCCCC)[C@@H]1C(=O)O` [C-75] + Nc1ncn([C@H]2C[C@H](O)[C@@H](CO)O2)c(=O)n1 [Decitabine] (partner 2 µM), the relative viability is 0.396.

Staying with this assay, now noted: first compound 0.8 µM.
As for `Oc1nc(-c2ccc(C(F)(F)F)cc2)nc2c1CSCC2` [XAV939] + O=C(CCCCCCC(=O)Nc1ccccc1)NO [Vorinostat] (partner 1 µM), the relative viability is 0.804.

Turning to `Oc1nc(-c2ccc(C(F)(F)F)cc2)nc2c1CSCC2` [XAV939] + O=C(c1cc(Cc2n[nH]c(=O)c3ccccc23)ccc1F)N1CCN(C(=O)C2CC2)CC1 [Olaparib] (partner 8 µM), the relative viability was determined as 1.08.

`Oc1nc(-c2ccc(C(F)(F)F)cc2)nc2c1CSCC2` [XAV939] + CC(=O)c1c(C)c2cnc(Nc3ccc(N4CCNCC4)cn3)nc2n(C2CCCC2)c1=O [Palbociclib] (partner 0.5 µM) displayed a relative viability of 0.588.

For `C=C1C(=O)O[C@@H](CCCCCCCC)[C@@H]1C(=O)O` [C-75] + CC(=O)c1c(C)c2cnc(Nc3ccc(N4CCNCC4)cn3)nc2n(C2CCCC2)c1=O [Palbociclib] (partner 0.5 µM), the relative viability came to 0.597.

As for `C=C1C(=O)O[C@@H](CCCCCCCC)[C@@H]1C(=O)O` [C-75] + Nc1ncn([C@H]2C[C@H](O)[C@@H](CO)O2)c(=O)n1 [Decitabine] (partner 2 µM), the relative viability turned out to be 0.317.

Staying with this assay, now noted: first compound 2.53 µM.
For the compound `Oc1nc(-c2ccc(C(F)(F)F)cc2)nc2c1CSCC2` [XAV939] + O=C(CCCCCCC(=O)Nc1ccccc1)NO [Vorinostat] (partner 1 µM), the relative viability worked out at 0.8.

The compound `Oc1nc(-c2ccc(C(F)(F)F)cc2)nc2c1CSCC2` [XAV939] + O=C(c1cc(Cc2n[nH]c(=O)c3ccccc23)ccc1F)N1CCN(C(=O)C2CC2)CC1 [Olaparib] (partner 8 µM) gave a relative viability of 1.07.

For `Oc1nc(-c2ccc(C(F)(F)F)cc2)nc2c1CSCC2` [XAV939] + CC(=O)c1c(C)c2cnc(Nc3ccc(N4CCNCC4)cn3)nc2n(C2CCCC2)c1=O [Palbociclib] (partner 0.5 µM), the relative viability amounted to 0.632.

`C=C1C(=O)O[C@@H](CCCCCCCC)[C@@H]1C(=O)O` [C-75] + CC(=O)c1c(C)c2cnc(Nc3ccc(N4CCNCC4)cn3)nc2n(C2CCCC2)c1=O [Palbociclib] (partner 0.5 µM) yielded a relative viability of 0.604.

`C=C1C(=O)O[C@@H](CCCCCCCC)[C@@H]1C(=O)O` [C-75] + Nc1ncn([C@H]2C[C@H](O)[C@@H](CO)O2)c(=O)n1 [Decitabine] (partner 2 µM) yielded a relative viability of 0.3.

The assay is the same for the next values; noted with them: first compound 8 µM.
In turn, `C=C1C(=O)O[C@@H](CCCCCCCC)[C@@H]1C(=O)O` [C-75] + CC(=O)c1c(C)c2cnc(Nc3ccc(N4CCNCC4)cn3)nc2n(C2CCCC2)c1=O [Palbociclib] (partner 0.5 µM) yielded a relative viability of 0.621.

`C=C1C(=O)O[C@@H](CCCCCCCC)[C@@H]1C(=O)O` [C-75] + Nc1ncn([C@H]2C[C@H](O)[C@@H](CO)O2)c(=O)n1 [Decitabine] (partner 2 µM) had a relative viability of 0.399.

In the next assay the test system is NCI-H596. The description is as above. As to conditions: first compound 0.08 µM. The method, boiled down:
as §1
Consider `Oc1nc(-c2ccc(C(F)(F)F)cc2)nc2c1CSCC2` [XAV939] + O=C(CCCCCCC(=O)Nc1ccccc1)NO [Vorinostat] (partner 1 µM), for which the relative viability was 0.642.

In turn, `Oc1nc(-c2ccc(C(F)(F)F)cc2)nc2c1CSCC2` [XAV939] + O=C(c1cc(Cc2n[nH]c(=O)c3ccccc23)ccc1F)N1CCN(C(=O)C2CC2)CC1 [Olaparib] (partner 8 µM) came in with a relative viability of 0.769.

In turn, `C=C1C(=O)O[C@@H](CCCCCCCC)[C@@H]1C(=O)O` [C-75] + Nc1ncn([C@H]2C[C@H](O)[C@@H](CO)O2)c(=O)n1 [Decitabine] (partner 2 µM) yielded a relative viability of 0.943.

Still in this assay, the particulars now being: first compound 0.253 µM.
The compound `Oc1nc(-c2ccc(C(F)(F)F)cc2)nc2c1CSCC2` [XAV939] + O=C(CCCCCCC(=O)Nc1ccccc1)NO [Vorinostat] (partner 1 µM) registered a relative viability of 0.623.

Compound `Oc1nc(-c2ccc(C(F)(F)F)cc2)nc2c1CSCC2` [XAV939] + O=C(c1cc(Cc2n[nH]c(=O)c3ccccc23)ccc1F)N1CCN(C(=O)C2CC2)CC1 [Olaparib] (partner 8 µM) gave a relative viability of 0.644.

For the compound `C=C1C(=O)O[C@@H](CCCCCCCC)[C@@H]1C(=O)O` [C-75] + Nc1ncn([C@H]2C[C@H](O)[C@@H](CO)O2)c(=O)n1 [Decitabine] (partner 2 µM), the relative viability was found to be 1.16.

The same assay, now with this note: first compound 0.8 µM.
`Oc1nc(-c2ccc(C(F)(F)F)cc2)nc2c1CSCC2` [XAV939] + O=C(CCCCCCC(=O)Nc1ccccc1)NO [Vorinostat] (partner 1 µM) had a relative viability of 0.587.

Take `Oc1nc(-c2ccc(C(F)(F)F)cc2)nc2c1CSCC2` [XAV939] + O=C(c1cc(Cc2n[nH]c(=O)c3ccccc23)ccc1F)N1CCN(C(=O)C2CC2)CC1 [Olaparib] (partner 8 µM): the relative viability came to 0.776.

In turn, `C=C1C(=O)O[C@@H](CCCCCCCC)[C@@H]1C(=O)O` [C-75] + Nc1ncn([C@H]2C[C@H](O)[C@@H](CO)O2)c(=O)n1 [Decitabine] (partner 2 µM) returned a relative viability of 0.953.

The assay is the same for the next values; noted with them: first compound 2.53 µM.
The compound `Oc1nc(-c2ccc(C(F)(F)F)cc2)nc2c1CSCC2` [XAV939] + O=C(CCCCCCC(=O)Nc1ccccc1)NO [Vorinostat] (partner 1 µM) yielded a relative viability of 0.543.
